The source of these data is the supplement of paper PMC11616607.

The test system of the first assay is JHOS2. Kind of assay: drug sensitivity score (DSS) from 5-point dose-response viability curve (DSS (area-under-curve based score)); higher = more sensitive (stronger growth inhibition or killing); extreme values may be limits of the assay. The conditions noted are these: exposure time: 72 h; concentration range: 5 concentrations over 10,000-fold range. Summed up: (§1)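 Ovarian cancer and normal ovarian cell lines were tested in 384-well plates, with drugs dispensed acoustically (Echo 550) in DMSO or water at five concentrations covering a 10,000-fold range. After 1,500 cells per well were added, plates were incubated for 3 days at 37°C and 5% CO2, and viability was read by CellTiter-Glo luminescence on a PHERAstar FS. Breeze software gave a drug sensitivity score for each cell line and drug, where a higher score means greater sensitivity. A value of zero means no response.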
For `C[C@H]1CNCCCN1S(=O)(=O)c1cccc2cncc(F)c12` [Ripasudil], the drug sensitivity score worked out at 0.
Regarding `C=CC(=O)Nc1cccc(Nc2nc(Nc3ccc(N4CCN(C(C)=O)CC4)cc3OC)ncc2C(F)(F)F)c1` [Rociletinib], the drug sensitivity score is 2.9.
As to `O=C(CCCCCCNC(=O)c1cnc(N(c2ccccc2)c2ccccc2)nc1)NO` [Rocilinostat], the drug sensitivity score came to 1.6.
Same read-out and setting: the same measure for `C/C=C1\NC(=O)[C@H]2CSSCC/C=C/[C@H](CC(=O)N[C@H](C(C)C)C(=O)N2)OC(=O)[C@H](C(C)C)NC1=O` [Romidepsin]: 22.7.
Still for that read-out and setting: for `Cc1nc(C(=O)NCC(=O)O)c(O)c2ccc(Oc3ccccc3)cc12` [Roxadustat] the value was 0.1.
Still for that read-out and setting: for `CN(C)C[C@@H]1CCn2cc(c3ccccc32)C2=C(C(=O)NC2=O)c2cn(c3ccccc23)CCO1` [Ruboxistaurin] the value was 8.8; for `CNCc1ccc(-c2[nH]c3cc(F)cc4c3c2CCNC4=O)cc1` [Rucaparib], 0.7.
For `N#CC[C@H](C1CCCC1)n1cc(-c2ncnc3[nH]ccc23)cn1` [Ruxolitinib], the drug sensitivity score is 1.
For `CC(C)N(CCCNC(=O)Nc1ccc(C(C)(C)C)cc1)C[C@H]1O[C@@H](n2cc(Br)c3c(N)ncnc32)[C@H](O)[C@@H]1O` [SGC0946], the drug sensitivity score was determined as 0.
`COc1ccc(CCc2nc3cc(-c4c(C)noc4C)ccc3n2C[C@H](C)N2CCOCC2)cc1Cl` [SGC-CBP30] came in with a drug sensitivity score of 1.7.
In turn, `CN1CCC(CNc2ccc3ncc(-c4cccc(OC(F)(F)F)c4)n3n2)CC1` [SGI-1776] yielded a drug sensitivity score of 5.2.
Still for that read-out and setting: for `CN(CC(=O)N(Cc1ccc(C2CCCCC2)cc1)c1ccc(C(=O)O)cc1)S(=O)(=O)c1c(F)c(F)c(F)c(F)c1F` [SH-4-54] the value was 5.2.
Same read-out and setting: for `CCc1c2c(nc3ccc(O)cc13)-c1cc3c(c(=O)n1C2)COC(=O)[C@]3(O)CC` [SN-38] the value was 25.2; for `CC(C)(C)c1cnc(CSc2cnc(NC(=O)C3CCNCC3)s2)o1` [SNS-032], 23.3.
The same measure, in the same setting: the same measure for `Cc1cc2c(C(=O)NC[C@H](C)c3ccccc3)c(O)c(O)cc2c(O)c1-c1c(C)cc2c(C(=O)NC[C@H](C)c3ccccc3)c(O)c(O)cc2c1O` [Sabutoclax]: 8.1.

In a further assay the test system is COV362. Described as above. The conditions noted are these: exposure time: 72 h; concentration range: 5 concentrations over 10,000-fold range. Summed up: as §1
Consider `C[C@H]1CNCCCN1S(=O)(=O)c1cccc2cncc(F)c12` [Ripasudil], for which the drug sensitivity score is 0.
As to `C=CC(=O)Nc1cccc(Nc2nc(Nc3ccc(N4CCN(C(C)=O)CC4)cc3OC)ncc2C(F)(F)F)c1` [Rociletinib], the drug sensitivity score was 3.3.
The same measure, in the same setting: the same measure for `O=C(CCCCCCNC(=O)c1cnc(N(c2ccccc2)c2ccccc2)nc1)NO` [Rocilinostat]: 0; for `C/C=C1\NC(=O)[C@H]2CSSCC/C=C/[C@H](CC(=O)N[C@H](C(C)C)C(=O)N2)OC(=O)[C@H](C(C)C)NC1=O` [Romidepsin]: 11.9; for `Cc1nc(C(=O)NCC(=O)O)c(O)c2ccc(Oc3ccccc3)cc12` [Roxadustat]: 0.
Compound `CN(C)C[C@@H]1CCn2cc(c3ccccc32)C2=C(C(=O)NC2=O)c2cn(c3ccccc23)CCO1` [Ruboxistaurin] returned a drug sensitivity score of 2.5.
With `CNCc1ccc(-c2[nH]c3cc(F)cc4c3c2CCNC4=O)cc1` [Rucaparib], the drug sensitivity score stood at 0.
`N#CC[C@H](C1CCCC1)n1cc(-c2ncnc3[nH]ccc23)cn1` [Ruxolitinib] displayed a drug sensitivity score of 0.
Still for that read-out and setting: the same measure for `CC(C)N(CCCNC(=O)Nc1ccc(C(C)(C)C)cc1)C[C@H]1O[C@@H](n2cc(Br)c3c(N)ncnc32)[C@H](O)[C@@H]1O` [SGC0946]: 3.4; for `COc1ccc(CCc2nc3cc(-c4c(C)noc4C)ccc3n2C[C@H](C)N2CCOCC2)cc1Cl` [SGC-CBP30]: 0.2; for `CN1CCC(CNc2ccc3ncc(-c4cccc(OC(F)(F)F)c4)n3n2)CC1` [SGI-1776]: 4.3.
With `CN(CC(=O)N(Cc1ccc(C2CCCCC2)cc1)c1ccc(C(=O)O)cc1)S(=O)(=O)c1c(F)c(F)c(F)c(F)c1F` [SH-4-54], the drug sensitivity score turned out to be 4.5.
The same measure, in the same setting: for `CCc1c2c(nc3ccc(O)cc13)-c1cc3c(c(=O)n1C2)COC(=O)[C@]3(O)CC` [SN-38] the value was 16.8; for `CC(C)(C)c1cnc(CSc2cnc(NC(=O)C3CCNCC3)s2)o1` [SNS-032], 13.9; for `Cc1cc2c(C(=O)NC[C@H](C)c3ccccc3)c(O)c(O)cc2c(O)c1-c1c(C)cc2c(C(=O)NC[C@H](C)c3ccccc3)c(O)c(O)cc2c1O` [Sabutoclax], 9.

The test system of the next assay is HOSE2C. Described as above. The conditions noted are these: exposure time: 72 h; concentration range: 5 concentrations over 10,000-fold range. Summed up:
as §1
As to `C[C@H]1CNCCCN1S(=O)(=O)c1cccc2cncc(F)c12` [Ripasudil], the drug sensitivity score is 0.6.
Still for that read-out and setting: the same measure for `C=CC(=O)Nc1cccc(Nc2nc(Nc3ccc(N4CCN(C(C)=O)CC4)cc3OC)ncc2C(F)(F)F)c1` [Rociletinib]: 6.8; for `O=C(CCCCCCNC(=O)c1cnc(N(c2ccccc2)c2ccccc2)nc1)NO` [Rocilinostat]: 5.7; for `C/C=C1\NC(=O)[C@H]2CSSCC/C=C/[C@H](CC(=O)N[C@H](C(C)C)C(=O)N2)OC(=O)[C@H](C(C)C)NC1=O` [Romidepsin]: 35.8.
Still for that read-out and setting: the same measure for `Cc1nc(C(=O)NCC(=O)O)c(O)c2ccc(Oc3ccccc3)cc12` [Roxadustat]: 0.
On the same count and under the same terms, for `CN(C)C[C@@H]1CCn2cc(c3ccccc32)C2=C(C(=O)NC2=O)c2cn(c3ccccc23)CCO1` [Ruboxistaurin] the value was 6.2; for `CNCc1ccc(-c2[nH]c3cc(F)cc4c3c2CCNC4=O)cc1` [Rucaparib], 0; for `N#CC[C@H](C1CCCC1)n1cc(-c2ncnc3[nH]ccc23)cn1` [Ruxolitinib], 0.
`CC(C)N(CCCNC(=O)Nc1ccc(C(C)(C)C)cc1)C[C@H]1O[C@@H](n2cc(Br)c3c(N)ncnc32)[C@H](O)[C@@H]1O` [SGC0946] gave a drug sensitivity score of 0.
On to `COc1ccc(CCc2nc3cc(-c4c(C)noc4C)ccc3n2C[C@H](C)N2CCOCC2)cc1Cl` [SGC-CBP30], for which the drug sensitivity score came to 6.1.
Still for that read-out and setting: the same measure for `CN1CCC(CNc2ccc3ncc(-c4cccc(OC(F)(F)F)c4)n3n2)CC1` [SGI-1776]: 7.2; for `CN(CC(=O)N(Cc1ccc(C2CCCCC2)cc1)c1ccc(C(=O)O)cc1)S(=O)(=O)c1c(F)c(F)c(F)c(F)c1F` [SH-4-54]: 7.5; for `CCc1c2c(nc3ccc(O)cc13)-c1cc3c(c(=O)n1C2)COC(=O)[C@]3(O)CC` [SN-38]: 36.4.
Compound `CC(C)(C)c1cnc(CSc2cnc(NC(=O)C3CCNCC3)s2)o1` [SNS-032] yielded a drug sensitivity score of 12.1.
Compound `Cc1cc2c(C(=O)NC[C@H](C)c3ccccc3)c(O)c(O)cc2c(O)c1-c1c(C)cc2c(C(=O)NC[C@H](C)c3ccccc3)c(O)c(O)cc2c1O` [Sabutoclax] registered a drug sensitivity score of 16.1.
